# Laboratory results reported in US8163871B2, “Enzymatic reactions in the presence of keto acids” (Unigene Laboratories, Inc., priority 2004, dated 2012).
# Tested on: peptidylglycine α-amidating monooxygenase (PAM)
# Test: α-Amidation of rhPTH(1-31)Gly32-OH to rhPTH(1-31)-NH2 with PAM in the presence of α-keto acids/esters (CEX-HPLC area %)
# Type: biochemical
# Settings: 4 mg/mL rhPTH(1-31)Gly32-OH, 15,000 U/mL PAM, MES pH 6.3-6.5, 4 hours at 37° C.
# Text: Because the R group is unchanged in this reaction, a large number of R moieties is possible. Applicants have tested a number of keto acids (or corresponding esters or salts thereof), and have reported their efficacy in Table 1 below for the amidation of recombinant human parathyroid hormone truncate (first 31 amino acids of PTH followed by C-terminal glycine). Amidation using catalase is also reported in the footnotes to Table 1. […] A preferred concentration was chosen for each compound. Also, separate controls are therefore used with respect to each of the compounds tested in Table 1, so that each compound's performance may be compared to its corresponding control. […] The control values that are set forth in Table 1 are typical values observed for amidation of rhPTH(1-31)Gly32-OH in the absence of the reaction-enhancing compounds of the invention.
# To determine the information in Table 1 below, stock solutions of all reagents were prepared in water. Amidations were carried out under the following conditions: 4 mg/mL rhPTH(1-31)Gly32-OH, 30 mM 2-morpholinoethanesulfonic acid (MES) pH [6.3-6.5], 0.5 μM cupric sulfate, 5 mM potassium iodide, 2 mM ascorbate, [0-1%] ethanol and 15,000 U/mL PAM. All reactions were incubated for 4 hours at 37° C. Reagents were added in the following order: rhPTH(1-31)Gly32-OH, water, MES, potassium iodide, ethanol, cupric sulfate, α-keto acid or ester, ascorbate and PAM. All reactions were acidified to pH 2.0 with 6% trifluoroacetic acid and analyzed by CEX-HPLC (area %) to detect formation of the desired product rhPTH(1-31)NH2.
molecule,measurement,setting,value
"2-Keto glutaric acid, sodium salt",% Conversion,10 mM compound,76%
"CCC(=O)C(=O)[O-].[Na+] [2-Ketobutyric acid, sodium salt]",% Conversion,16 mM compound,96%
"CC(C)C(=O)C(=O)[O-].[Na+] [3-Methyl-2-oxobutanoic acid, sodium salt]",% Conversion,64 mM compound,78%
"CCC(C)C(=O)C(=O)[O-].[Na+] (stereo not shown) [3-Methyl-2-oxopentanoic acid, sodium salt]",% Conversion,10-150 mM compound,≦61%
"CC(C)CC(=O)C(=O)[O-].[Na+] [4-Methyl-2-oxopentanoic acid, sodium salt]",% Conversion,10-150 mM compound,<48%
O=C(O)C(=O)c1ccccc1 [Benzoylformic acid],% Conversion,10 mM compound,82%
CCOC(=O)C(C)=O [Ethyl pyruvate],% Conversion,50 mM compound,89%
COC(=O)C(C)=O [Methyl pyruvate],% Conversion,50 mM compound,86%
CC(=O)C(=O)O [Pyruvic acid],% Conversion,"6 mM compound, average of triplicate values",86^a %
CC(=O)C(=O)[O-].[Na+] [Sodium pyruvate],% Conversion,8 mM compound,95%
